From patent publication US10597388B2, “Pyridazinone herbicides” (FMC CORPORATION, priority 2014, dated 2020)

Columns and labels:
Assay in all cases: Test D controlled growth environment herbicide test, pre- and postemergence
Format in all cases: in vivo
[1] = test system: barley, spring (spring barley, Hordeum vulgare)
Method in brief: (§1)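 Species sown in silt loam and sprayed preemergence, or grown in peat-based medium to 2–18 cm (1- to 4-leaf stage) and sprayed postemergence, with compounds in non-phytotoxic solvent plus surfactant. Visual injury scored versus controls after 14–21 d in a controlled environment, 0 (no effect) to 100 (complete control).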

[2] = test system: barley, winter (winter barley, Hordeum vulgare)
Method in brief: as §1

[3] = test system: bluegrass (annual bluegrass, Poa annua)
Method in brief: as §1

[4] = test system: bromegrass, downy (downy bromegrass, Bromus tectorum)
Method in brief: as §1

[5] = test system: canarygrass (Phalaris minor)
Method in brief: as §1

[6] = test system: chamomile (scentless chamomile, Matricaria inodora)
Method in brief: as §1

[7] = test system: foxtail, green (green foxtail, Setaria viridis)
Method in brief: as §1

[8] = test system: galium (catchweed bedstraw, Galium aparine)
Method in brief: as §1

[9] = test system: kochia (Kochia scoparia)
Method in brief: as §1

[10] = test system: lambsquarters (Chenopodium album)
Method in brief: as §1

[11] = test system: mustard, wild (wild mustard, Sinapis arvensis)
Method in brief: as §1

[12] = test system: oat, wild (wild oat, Avena fatua)
Method in brief: as §1

[13] = test system: speedwell (bird's-eye speedwell, Veronica persica)
Method in brief: as §1

[14] = Postemergence, 31 g ai/ha, scale 0 to 100 (0 no effect, 100 complete control)
[15] = Postemergence, 125 g ai/ha, visual rating on scale 0 (no effect) to 100 (complete control), 14 to 21 d
[16] = Postemergence, 250 g ai/ha, scale 0 to 100 (0 no effect, 100 complete control)
[17] = Preemergence, 62 g ai/ha, scale 0 to 100 (0 no effect, 100 complete control)
[18] = Preemergence, 125 g ai/ha, scale 0 to 100 (0 no effect, 100 complete control)
[19] = Preemergence, 250 g ai/ha, scale 0 to 100 (0 no effect, 100 complete control)
[20] = postemergence, 62 g ai/ha, scale 0 to 100, 0 no effect, 100 complete control

## CCC(=O)Oc1c(C)nn(C)c(=O)c1-c1c(C)sc2ccc(Cl)cc12 [Compound 109]
[1]; [14]
  Barley, Spring plant response rating: 0
[1]; [15]
  Plant response rating, Barley, Spring: 10
[1]; [16]
  Plant response rating, Barley, Spring: 25
[1]; Preemergence, 31 g ai/ha
  Plant response rating (scale of 0 to 100), Barley, Spring: 0
[1]; [17]
  Plant response rating, Barley, Spring: 0
[1]; [18]
  Plant response rating, Barley, Spring: 5
[1]; [19]
  Plant response rating, Barley, Spring: 5
[1]; [20]
  Plant response rating, Barley, Spring: 5
[2]; [14]
  Barley, Winter plant response rating: 5
[2]; [15]
  Plant response rating, Barley, Winter: 5
[2]; [16]
  Plant response rating, Barley, Winter: 20
[2]; Preemergence, 31 g ai/ha
  Plant response rating (scale of 0 to 100), Barley, Winter: 0
[2]; [17]
  Plant response rating, Barley, Winter: 0
[2]; [18]
  Plant response rating, Barley, Winter: 0
[2]; [19]
  Plant response rating, Barley, Winter: 10
[2]; [20]
  Plant response rating, Barley, Winter: 0
[3]; [14]
  Bluegrass plant response rating: 5
[3]; [15]
  Plant response rating, Bluegrass: 25
[3]; [16]
  Plant response rating, Bluegrass: 45
[3]; Preemergence, 31 g ai/ha
  Plant response rating (scale of 0 to 100), Bluegrass: 10
[3]; [17]
  Plant response rating, Bluegrass: 20
[3]; [18]
  Plant response rating, Bluegrass: 30
[3]; [19]
  Plant response rating, Bluegrass: 60
[3]; [20]
  Plant response rating, Bluegrass: 15
[4]; [14]
  Bromegrass, Downy plant response rating: 30
[4]; [15]
  Plant response rating, Bromegrass, Downy: 60
[4]; [16]
  Plant response rating, Bromegrass, Downy: 75
[4]; Preemergence, 31 g ai/ha
  Plant response rating (scale of 0 to 100), Bromegrass, Downy: 0
[4]; [17]
  Plant response rating, Bromegrass, Downy: 30
[4]; [18]
  Plant response rating, Bromegrass, Downy: 65
[4]; [19]
  Plant response rating, Bromegrass, Downy: 65
[4]; [20]
  Plant response rating, Bromegrass, Downy: 30
[5]; [14]
  Canarygrass plant response rating: 40
[5]; [15]
  Plant response rating, Canarygrass: 80
[5]; [16]
  Plant response rating, Canarygrass: 90
[5]; Preemergence, 31 g ai/ha
  Plant response rating (scale of 0 to 100), Canarygrass: 35
[5]; Preemergence, 62 g ai/ha
  Plant response rating (scale of 0 to 100), Canarygrass: 75
[5]; [18]
  Plant response rating, Canarygrass: 90
[5]; [19]
  Plant response rating, Canarygrass: 98
[5]; [20]
  Plant response rating, Canarygrass: 55
[6]; [14]
  Chamomile plant response rating: 80
[6]; [15]
  Plant response rating, Chamomile: 95
[6]; [16]
  Plant response rating, Chamomile: 100
[6]; [20]
  Plant response rating, Chamomile: 85
[7]; [14]
  Foxtail, Green plant response rating: 55
[7]; [15]
  Plant response rating, Foxtail, Green: 75
[7]; [16]
  Plant response rating, Foxtail, Green: 85
[7]; Preemergence, 31 g ai/ha
  Plant response rating (scale of 0 to 100), Foxtail, Green: 0
[7]; Preemergence, 62 g ai/ha
  Plant response rating (scale of 0 to 100), Foxtail, Green: 65
[7]; [18]
  Plant response rating, Foxtail, Green: 75
[7]; [19]
  Plant response rating, Foxtail, Green: 95
[7]; [20]
  Plant response rating, Foxtail, Green: 65
[8]; [14]
  Galium plant response rating: 100
[8]; [15]
  Plant response rating, Galium: 100
[8]; [16]
  Plant response rating, Galium: 100
[8]; Preemergence, 31 g ai/ha
  Plant response rating (scale of 0 to 100), Galium: 40
[8]; Preemergence, 62 g ai/ha
  Plant response rating (scale of 0 to 100), Galium: 75
[8]; [18]
  Plant response rating, Galium: 100
[8]; [19]
  Plant response rating, Galium: 100
[8]; [20]
  Plant response rating, Galium: 100
[9]; [14]
  Kochia plant response rating: 95
[9]; [15]
  Plant response rating, Kochia: 100
[9]; [16]
  Plant response rating, Kochia: 100
[9]; Preemergence, 31 g ai/ha
  Plant response rating (scale of 0 to 100), Kochia: 20
[9]; Preemergence, 62 g ai/ha
  Plant response rating (scale of 0 to 100), Kochia: 70
[9]; [18]
  Plant response rating, Kochia: 80
[9]; [19]
  Plant response rating, Kochia: 100
[9]; [20]
  Plant response rating, Kochia: 100
[10]; [14]
  Lambsquarters plant response rating: 90
[10]; [15]
  Plant response rating, Lambsquarters: 95
[10]; [16]
  Plant response rating, Lambsquarters: 100
[10]; Preemergence, 31 g ai/ha
  Plant response rating (scale of 0 to 100), Lambsquarters: 95
[10]; Preemergence, 62 g ai/ha
  Plant response rating (scale of 0 to 100), Lambsquarters: 100
[10]; [18]
  Plant response rating, Lambsquarters: 100
[10]; [19]
  Plant response rating, Lambsquarters: 100
[10]; [20]
  Plant response rating, Lambsquarters: 95
[11]; [14]
  Mustard, Wild plant response rating: 60
[11]; [15]
  Plant response rating, Mustard, Wild: 90
[11]; [16]
  Plant response rating, Mustard, Wild: 100
[11]; Preemergence, 31 g ai/ha
  Plant response rating (scale of 0 to 100), Mustard, Wild: 5
[11]; Preemergence, 62 g ai/ha
  Plant response rating (scale of 0 to 100), Mustard, Wild: 75
[11]; [18]
  Plant response rating, Mustard, Wild: 100
[11]; [19]
  Plant response rating, Mustard, Wild: 100
[11]; [20]
  Plant response rating, Mustard, Wild: 85
[12]; [14]
  Oat, Wild plant response rating: 95
[12]; [15]
  Plant response rating, Oat, Wild: 95
[12]; [16]
  Plant response rating, Oat, Wild: 100
[12]; Preemergence, 31 g ai/ha
  Plant response rating (scale of 0 to 100), Oat, Wild: 75
[12]; Preemergence, 62 g ai/ha
  Plant response rating (scale of 0 to 100), Oat, Wild: 80
[12]; [18]
  Plant response rating, Oat, Wild: 90
[12]; [19]
  Plant response rating, Oat, Wild: 90
[12]; [20]
  Plant response rating, Oat, Wild: 95
[13]; [14]
  Speedwell plant response rating: 50
[13]; [15]
  Plant response rating, Speedwell: 75
[13]; [16]
  Plant response rating, Speedwell: 100
[13]; [20]
  Plant response rating, Speedwell: 60
